# Tests used:
# [1] = target: T1, PKCε (Homo sapiens, UniProt Q02156); experiment: PKC assay with purified PKCε; format: biochemical; details: for activation of purified PKCε (in words): FIG. 7, methyl esters
# T1 construct: purchased Calbiochem
# T1 sequence (Q02156 1-737): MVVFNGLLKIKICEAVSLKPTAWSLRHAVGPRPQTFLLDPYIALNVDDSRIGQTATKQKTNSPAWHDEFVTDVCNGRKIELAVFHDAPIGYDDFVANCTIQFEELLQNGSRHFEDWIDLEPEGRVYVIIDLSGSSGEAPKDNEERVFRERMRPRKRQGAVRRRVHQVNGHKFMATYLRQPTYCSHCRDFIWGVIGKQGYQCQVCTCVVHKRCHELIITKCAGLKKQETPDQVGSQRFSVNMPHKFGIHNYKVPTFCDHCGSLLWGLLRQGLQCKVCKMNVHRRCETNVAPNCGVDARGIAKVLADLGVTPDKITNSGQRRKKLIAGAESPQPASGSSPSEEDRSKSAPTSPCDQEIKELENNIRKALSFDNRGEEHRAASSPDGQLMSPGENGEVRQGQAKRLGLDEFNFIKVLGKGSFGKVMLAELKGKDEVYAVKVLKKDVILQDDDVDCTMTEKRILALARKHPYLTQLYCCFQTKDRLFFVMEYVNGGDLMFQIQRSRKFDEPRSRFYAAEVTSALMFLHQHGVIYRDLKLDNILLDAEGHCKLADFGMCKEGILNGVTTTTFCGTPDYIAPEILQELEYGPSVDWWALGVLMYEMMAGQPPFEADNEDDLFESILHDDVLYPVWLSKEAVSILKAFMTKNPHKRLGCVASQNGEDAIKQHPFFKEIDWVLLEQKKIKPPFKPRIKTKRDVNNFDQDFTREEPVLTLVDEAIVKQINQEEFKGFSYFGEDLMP
# Experimental: PKC assay. Recombinant PKC (1 ng of PKCα or PKCε isoform) was mixed with BR-101 (DCP-LA) in the presence of 10 micromolar histones, 5 mM CaCl2, 1.2 μg/μl phosphatidyl-L-serine, 0.18 μg/μl 1,2-dioctanoyl-sn-glycerol (DAG), 10 mM MgCl2, 20 mM HEPES (pH 7.4), 0.8 mM EDTA, 4 mM EGTA, 4% glycerol, 8 μg/ml aprotinin, 8 μg/ml leupeptin, and 2 mM benzamidine. 0.5 micro Ci[^γ32P]ATP was added. The incubation mixture was incubated for 15 min at 37 degrees in a total volume of 10 microliters. The reaction was stopped by spotting the reaction mixtures on 1×2 cm strips of cellulose phosphate paper (Whatman P81) and immediately washing twice for 1 hr in 0.5% H3PO4. The cellulose phosphate strips were counted in a scintillation counter. In some experiments, phosphatidylserine, diacylglycerol, and/or calcium were removed.
# DHA methyl ester was purchased from Cayman Chemical (Ann Arbor, Me.). PKC isozymes were from Calbiochem (San Diego, Calif.). Purified PKCε was purchased from Calbiochem.
# (§1) Protein kinase C assay. Rat hippocampal cells were cultured and scraped in 0.2 ml homogenization buffer (20 mM Tris-HCl, pH 7.4, 50 mM NaF, 1 μg/ml leupeptin, and 0.1 mM PMSF) and homogenized by sonication a Marsonix microprobe sonicator (5 sec, 10 W). To measure PKC, 10 μl of cell homogenate or purified PKC isozyme (purchased from Calbiochem) was incubated for 15 min at 37° C. in the presence of 10 μM histones, 4.89 mM CaCl2, 1.2 μg/μl phosphatidyl-L-serine, 0.18 μg/μl 1,2-dioctanoyl-sn-glycerol, 10 mM MgCl2, 20 mM HEPES (pH 7.4), 0.8 mM EDTA, 4 mM EGTA, 4% glycerol, 8 μg/ml aprotinin, 8 μg/ml leupeptin, and 2 mM benzamidine. […][^γ32P]ATP was added and ^32P-phosphoprotein formation was measured by adsorption onto phosphocellulose as described previously. Nelson and Alkon, J. Neurochemistry (1995), vol. 65, pp. 2350-2357. For measurements of activation by BR-101 (DCP-LA) and similar compounds. PKC activity was measured in the absence of diacylglycerol and phosphatidylserine and PKC δ, ε, η, and μ were measured in the absence of added EGTA and CaCl2, as described by Kanno et al. (J. Lipid Res. 2006, vol. 47, pp. 1146-1150). Low concentrations of Ca^2+ are used because high Ca^2+ interacts with the PKC phosphatidylserine binding site and prevents activation. For measurements of bryostatin activation, 1,2-diacylglycerol was omitted unless otherwise stated.
# To determine their PKC isozyme specificity, fatty acid derivatives were preincubated with purified PKC for five minutes and the PKC activity was measured radiometrically.
# [2] = system: PKC; details: cited from earlier work
# [3] = system: squamous cell carcinoma and melanoma; details: used topically; cited from earlier work
# [4] = system: global cerebral ischemia/hypoxia in rats; experiment: Global ischemia model, water maze (Examples 10-11); format: in vivo, rat
# Experimental: Rats (male, Wistar, 200-225 g) were randomly divided into 6 groups (8 each) and housed for 1 week before experimentation. […] The global ischemia model used to induce vascular memory impairment was two-vessel occlusion combined with a short term systemic hypoxia. Ligation of the bilateral common carotid arteries was performed under anesthesia (pentobarbital, 60 mg/kg, i.p.). After a one-week recovery from the surgery, rats were exposed to 14-min hypoxia (5% oxygen in a glass jar). Control rats (sham operated and vehicle controls) were subjected to the same incision to isolate both common carotid arteries and to 14-min air (in the glass jar). Body temperature was kept at 37-37.5° C. using a heating light source during the surgical procedure and until the animals were fully recovered.
# [5] = system: PKC in H19-7/IGF-IR cells; experiment: PKC activity over time in rat H19-7/IGF-IR hippocampal cells; format: cell-based; details: treated cells, 8 hours; data not shown
# Experimental: Cell culture. Rat hippocampal H19-7/IGF-IR cells (ATCC, Manassas, Va.) were plated onto poly-L-lysine coated plates and grown at 35° C. in DMEM/10% FCS for several days until about 50% coverage was obtained. The cells were then induced to differentiate into a neuronal phenotype by replacing the medium with 5 ml N2 medium containing 10 ng/ml basic fibroblast growth factor at 39° C. and grown in T-75 flasks at 37° C. Human SH-SY5Y neuroblastoma cells (ATCC) were cultured in 45% F12K/45% MEM/10% FCS. Mouse N2A neuroblastoma cells were cultured in DMEM/10% FCS without glutamine. Rat hippocampal neurons from 18-day-old embryonic Sprague Dawley rat brains were plated on 12- or 96-well plates coated with poly-D-lysine (Sigma-Aldrich, St. Louis, Mo.) in B-27 neurobasal medium containing 0.5 mM glutamine and 25 μM glutamate (Invitrogen, Carlsbad, Calif.) and cultured for three days in the medium without glutamate. The neuronal cells were grown under 5% CO2 in an incubator maintained at 37° C. for 14 days.
# as §1
# PKC activators that bind to the diacylglycerol binding site, including bryostatin, gnidimacrin, and phorbol esters, produce a transient activation of PKC activity, followed by a prolonged downregulation. Nelson et al., Trends in Biochem. Sci. (2009), vol. 34, pp. 136-145. This was confirmed in cultured rat hippocampal cells. Incubation of rat H19-7/IGF-IR cells with (0.04 nM and 0.2 nM) bryostatin produced a 2-fold activation that lasted 30 min, followed by a 20% downregulation that returned to baseline by 24 hours (data not shown). […] This sustained activation was only observed in primary neurons.
# [6] = system: Aβ in COS cells; details: 1 μM, cultured COS cells, 8 hours; cited from earlier work
# [7] = non-ischemic rats, same regimens
compound,measurement,setting,value
"CCCCCC1OC1C/C=C\CCCCCCCC(=O)OC (stereo in doubt) [BR-117, vernolic acid methyl ester]",effect on PKC,[1]; FIG. 8,little or no effect
CCCCCCCC(=O)O[C@H]1/C(=C/C(=O)OC)C[C@H]2C[C@H](CO)OC(=O)C[C@H](O)C[C@@H]3CCC[C@H](C[C@@H]4CCO[C@H](/C=C/C(C)(C)[C@]1(O)O2)O4)O3 [Analog 1],affinity for PKC (in words),[2],highest affinity
"CCC1CC1CC1CC1CC1CC1CCCCCCCCO (stereo not shown) [BR-104, linolenic alcohol tricyclopropane]",effect on PKC,[1]; FIG. 8,little or no effect
"CCCCCC1CC1CC1CC1CCCCCCCCO (stereo not shown) [BR-105, linoleic alcohol dicyclopropane]",effect on PKC,[1]; FIG. 8,little or no effect
"CCCCC[C@H]1O[C@H]1CC1CC1CCCCCCCC(=O)OC (stereo partly shown) [BR-109, vernolic acid methyl ester cyclopropane]",concentrations at which PKCε is inhibited,[1]; FIG. 8,above 1 μM
CCC1CC1CC1CC1CC1CC1CC1CC1CC1CC1CCCC(=O)OC (stereo not shown) [BR-114],concentration needed to activate PKC relative to BR-101 (DCP-LA),[1],approximately 100 times lower
same,activation of purified PKCε (in words),[1],activated purified PKCε to a similar extent
"CCCCCC1CC1CC1CC1CC1CC1CC1CC1CCCC(=O)OC (stereo not shown) [BR-115, methyl 4-(2-((2-((2-((-pentylcyclopropyl)methyl)cyclopropyl)methyl)cyclopropyl)methyl)cyclopropyl)butanoate methyl ester]",concentration needed to activate PKC relative to BR-101 (DCP-LA),[1],approximately 100 times lower
same,activation of purified PKCε (in words),[1],activated purified PKCε to a similar extent
C/C=C(/C)C(=O)O[C@H]1C(C)=C[C@]23C(=O)[C@@H](C=C(CO)[C@@H](O)[C@]12O)[C@H]1[C@@H](C[C@H]3C)C1(C)C [Ingenol-3-angelate],antitumor activity,[3],exhibits antitumor activity
"Cc1ccc(OCC(=O)O)c(OCC(=O)O)c1 [MCDA, 4-Methylcatechol-diacetic acid]","water maze spatial learning, ischemic treated vs ischemic rats","[4]; bryostatin-1 20 μg/m^2 i.v. 2 doses/week, 10 doses, MCDA 1.0 mg/kg i.p. daily 5 weeks, start 24 hours after hypoxia",improved the learning
same,"target quadrant ratio in probe test, drug-only vs control rats",[4]; [7],no differences
same,"water maze spatial learning, drug-only vs control rats",[4]; [7],no differences
same,"target quadrant ratio in probe test, ischemic treated vs control rats",[4]; same regimens,no differences
same,"target quadrant ratio in probe test, ischemic treated vs ischemic rats",[4]; same regimens,group differences
same,"water maze spatial learning, ischemic treated vs control rats",[4]; same regimens,remained significant
"CCCCCCCCCCCCCC(=O)O[C@@H]1[C@@H](C)[C@@]2(O)[C@@H](C=C(CO)C[C@]3(O)C(=O)C(C)=C[C@@H]23)[C@@H]2C(C)(C)[C@]12OC(C)=O [PMA, phorbol 12-myristate 13-acetate]",PKC activity at 8 hours (downregulation),[5],strongly downregulated
CCCC(=O)O[C@@H]1[C@@H](C)[C@@]2(O)[C@@H](C=C(CO)C[C@]3(O)C(=O)C(C)=C[C@@H]23)[C@@H]2C(C)(C)[C@]12OC(=O)CCC [PdBu],effect on Aβ,[6],increase in Aβ
epoxystearic acid [BR-116],effect on PKC,[1]; FIG. 8,little or no effect

# Reference: patent publication US9889183B2, “PKC activators and anticoagulant in regimen for treating stroke” (BLANCHETTE ROCKEFELLER NEUROSCIENCES INSTITUTE, priority 2010, dated 2018)
